Assay results as given in patent publication EP4603105A1, “PHARMACEUTICAL COMPOSITION CONTAINING CYCLIC COMPOUND HAVING SELECTIVE KRAS INHIBITORY EFFECT AGAINST HRAS AND NRAS” (CHUGAI SEIYAKU KABUSHIKI KAISHA, priority 2022, dated 2024).
One block for each compound: values may come before it.

Legend:
[1] = target: GDP-bound NRAS wild-type protein (Homo sapiens, UniProt P01111); test: Binding to NRAS by surface plasmon resonance (SPR), KD and KD ratio to KRAS; settings: ratio of the KD value with respect to GDP-bound NRAS wild-type protein to the KD value with respect to KRAS
How it was run: (§1)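 Running buffer contained 10 µM GDP and 10 mM MgCl2 to keep RAS in the GDP state, with 4% DMSO at pH 7.4. Compounds were flowed at 100 µL/min in 75 s steps of rising concentration over captured biotin-Avi RAS at 30°C. Sensorgrams were fitted 1:1 for KD.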

HRAS wild-type protein = HRAS wild-type protein (Homo sapiens, UniProt P01112); test: Binding to HRAS by surface plasmon resonance (SPR), KD and KD ratio to KRAS; settings: ratio of the KD value with respect to HRAS wild-type protein to the KD value with respect to KRAS
How it was run: as §1

[2] = system: human lung cancer strain NCI-H441; assay type: cell-based
How it was run: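 Step one: dispense the test compound in serial DMSO dilutions. Step three: add the reagent and measure […].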

Sequence of GDP-bound NRAS wild-type protein (P01111 whole entry): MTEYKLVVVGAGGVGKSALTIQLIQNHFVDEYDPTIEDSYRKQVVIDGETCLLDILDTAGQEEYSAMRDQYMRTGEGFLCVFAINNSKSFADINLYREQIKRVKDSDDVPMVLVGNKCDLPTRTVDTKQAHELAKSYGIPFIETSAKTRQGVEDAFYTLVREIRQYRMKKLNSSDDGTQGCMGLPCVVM
Sequence of HRAS wild-type protein (P01112 whole entry): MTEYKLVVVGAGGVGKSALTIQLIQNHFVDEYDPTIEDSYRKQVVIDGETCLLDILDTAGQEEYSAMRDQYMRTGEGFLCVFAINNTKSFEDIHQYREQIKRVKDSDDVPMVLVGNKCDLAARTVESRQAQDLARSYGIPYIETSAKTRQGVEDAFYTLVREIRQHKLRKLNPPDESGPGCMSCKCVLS

SMILES: CCO[C@@H]1C[C@H]2C(=O)NC3(CCCC3)C(=O)N(C)[C@@H](C3CCCC3)C(=O)N(C)[C@H](C(=O)N(C)C)CC(=O)N(C)[C@@H](CC(C)C)C(=O)N[C@@H]([C@@H](C)CC)C(=O)N(C)CC(=O)N(C)[C@H]3C/C=C\CCN(C3=O)[C@@H](Cc3ccc(C)cc3)C(=O)N(C)CC(=O)N[C@@H](CCc3ccc(C(F)(F)F)c(OC)c3)C(=O)N2C1 [PP2197]
NRAS /KRAS [1]: A (a compound having 10 or more and less than 20 is denoted as A) | HRAS /KRAS (HRAS wild-type protein): B (a compound having 3 or more and less than 10 is denoted as B) | IC50 [2]: 0.0046 µM

SMILES: CCC[C@H]1C(=O)N[C@@H](C(CC)CC)C(=O)N(C)CC(=O)N(C)[C@H]2C/C=C\CCN(C2=O)[C@@H](Cc2ccc(C)cc2)C(=O)N(C)CC(=O)N[C@@H](CCc2ccc(C(F)(F)F)c(Cl)c2)C(=O)N2C[C@H](OCC)C[C@H]2C(=O)NC2(CC(C)(C)C2)C(=O)N(C)[C@@H](C2CCCC2)C(=O)N(C)[C@H](C(=O)N(C)C)CC(=O)N1C [PP2209]
NRAS /KRAS [1]: A (a compound having 10 or more and less than 20 is denoted as A) | HRAS /KRAS (HRAS wild-type protein): A (a compound having 10 or more and less than 20 is denoted as A) | IC50 [2]: 0.037 µM

SMILES: CCC[C@H]1C(=O)N[C@@H]([C@@H](C)CC)C(=O)N(C)CC(=O)N(C)[C@H]2C/C=C\CCN(C2=O)[C@@H](Cc2ccc(C)cc2)C(=O)N(C)CC(=O)N[C@@H](CCc2ccc(C(F)(F)F)c(Cl)c2)C(=O)N2C[C@H](CC)C[C@H]2C(=O)NC2(CC(C)(C)C2)C(=O)N(C)[C@@H](C2CCCC2)C(=O)N(C)[C@H](C(=O)N(C)C)CC(=O)N1C [PP2212]
NRAS /KRAS [1]: A (a compound having 10 or more and less than 20 is denoted as A) | HRAS /KRAS (HRAS wild-type protein): B (a compound having 3 or more and less than 10 is denoted as B) | IC50 [2]: 0.0235 µM

SMILES: CCC[C@H]1C(=O)N[C@@H]([C@@H](C)CC)C(=O)N(C)CC(=O)N(C)[C@H]2C/C=C\CCN(C2=O)[C@@H](Cc2ccc(C)cc2)C(=O)N(C)CC(=O)N[C@@H](CCc2ccc(C(F)(F)F)c(Cl)c2)C(=O)N2C[C@H](OCC)C[C@H]2C(=O)NC2(CC(C)(C)C2)C(=O)N(C)[C@@H](CC(C)C)C(=O)N(C)[C@H](C(=O)N(C)C)CC(=O)N1C [PP2224]
NRAS /KRAS [1]: A (a compound having 10 or more and less than 20 is denoted as A) | HRAS /KRAS (HRAS wild-type protein): A (a compound having 10 or more and less than 20 is denoted as A) | IC50 [2]: 0.0154 µM

SMILES: CCC[C@H]1C(=O)N[C@@H]([C@@H](C)CC)C(=O)N(C)CC(=O)N(C)[C@H]2C/C=C\CCN(C2=O)[C@@H](Cc2ccc(C)cc2)C(=O)N(C)CC(=O)N[C@@H](CCc2ccc(C(F)(F)F)c(Cl)c2)C(=O)N2C[C@H](OCC)C[C@H]2C(=O)NC2(CC(C)(C)C2)C(=O)N(C)[C@@H](CC(F)(F)F)C(=O)N(C)[C@H](C(=O)N(C)C)CC(=O)N1C [PP2226]
NRAS /KRAS [1]: A (a compound having 10 or more and less than 20 is denoted as A) | HRAS /KRAS (HRAS wild-type protein): A (a compound having 10 or more and less than 20 is denoted as A) | IC50 [2]: 0.0147 µM

SMILES: CCCOC[C@H]1C(=O)N[C@@H]([C@@H](C)CC)C(=O)N(C)CC(=O)N(C)[C@H]2C/C=C\CCN(C2=O)[C@@H](Cc2ccc(C)cc2)C(=O)N(C)CC(=O)N[C@@H](CCc2cc(F)c(C(F)(F)F)c(F)c2)C(=O)N2C[C@H](CCC)C[C@H]2C(=O)NC2(CCCC2)C(=O)N(C)[C@@H](C2CCCC2)C(=O)N(C)[C@H](C(=O)N(C)C)CC(=O)N1C [PP2229]
NRAS /KRAS [1]: A (a compound having 10 or more and less than 20 is denoted as A) | HRAS /KRAS (HRAS wild-type protein): A (a compound having 10 or more and less than 20 is denoted as A) | IC50 [2]: 0.0398 µM

SMILES: CCC[C@@H]1C[C@H]2C(=O)NC3(CCC3)C(=O)N(C)[C@@H](C3CCCC3)C(=O)N(C)[C@H](C(=O)N(C)C)CC(=O)N(C)[C@@H](CC(C)C)C(=O)N[C@@H]([C@@H](C)CC)C(=O)N(C)CC(=O)N(C)[C@H]3C/C=C\CCN(C3=O)[C@@H](Cc3ccc(C)cc3)C(=O)N(C)CC(=O)N[C@@H](CCc3cc(F)c(C(F)(F)F)c(F)c3)C(=O)N2C1 [PP2231]
NRAS /KRAS [1]: A (a compound having 10 or more and less than 20 is denoted as A) | HRAS /KRAS (HRAS wild-type protein): B (a compound having 3 or more and less than 10 is denoted as B) | IC50 [2]: 0.0162 µM

SMILES: CCCOC[C@H]1C(=O)N[C@@H]([C@@H](C)CC)C(=O)N(C)CC(=O)N(C)[C@H]2C/C=C\CCN(C2=O)[C@@H](Cc2ccc(C)cc2)C(=O)N(C)CC(=O)N[C@@H](CCc2ccc(C(F)(F)F)c(Cl)c2)C(=O)N2C[C@H](C)C[C@H]2C(=O)NC2(CC(C)(C)C2)C(=O)N(C)[C@@H](C2CCCC2)C(=O)N(C)[C@H](C(=O)N(C)C)CC(=O)N1C [PP2234]
NRAS /KRAS [1]: A (a compound having 10 or more and less than 20 is denoted as A) | HRAS /KRAS (HRAS wild-type protein): A (a compound having 10 or more and less than 20 is denoted as A) | IC50 [2]: 0.0111 µM

More lines, main results first:

IC50 [2]: 0.0066 µM
SMILES: CCC[C@H]1C(=O)N[C@@H](C2CCCC2)C(=O)N(C)CC(=O)N(C)[C@H]2C/C=C\CCN(C2=O)[C@@H](Cc2ccc(C)cc2)C(=O)N(C)CC(=O)N[C@@H](CCc2ccc(C(F)(F)F)c(Cl)c2)C(=O)N2C[C@H](OCC)C[C@H]2C(=O)NC2(CC(C)(C)C2)C(=O)N(C)[C@@H](CC(C)(C)C)C(=O)N(C)[C@H](C(=O)N(C)C)CC(=O)N1C [PP2196]
NRAS /KRAS [1]: A (a compound having 10 or more and less than 20 is denoted as A) | HRAS /KRAS (HRAS wild-type protein): B (a compound having 3 or more and less than 10 is denoted as B)

IC50 [2]: 0.0138 µM
SMILES: CCC[C@H]1C(=O)N[C@@H](C2CCCC2)C(=O)N(C)CC(=O)N(C)[C@H]2C/C=C\CCN(C2=O)[C@@H](Cc2ccc(C)cc2)C(=O)N(C)CC(=O)N[C@@H](CCc2ccc(C(F)(F)F)c(Cl)c2)C(=O)N2C[C@H](OCC)C[C@H]2C(=O)NC2(CC(C)(C)C2)C(=O)N(C)[C@@H](C2CCCC2)C(=O)N(C)[C@H](C(=O)N(C)C)CC(=O)N1C [PP2198]
NRAS /KRAS [1]: A (a compound having 10 or more and less than 20 is denoted as A) | HRAS /KRAS (HRAS wild-type protein): A (a compound having 10 or more and less than 20 is denoted as A)

IC50 [2]: 0.0258 µM
SMILES: CCC[C@H]1C(=O)N[C@@H](C(CC)CC)C(=O)N(C)CC(=O)N(C)[C@H]2C/C=C\CCN(C2=O)[C@@H](Cc2ccc(C)cc2)C(=O)N(C)CC(=O)N[C@@H](CCc2ccc(C(F)(F)F)c(Cl)c2)C(=O)N2C[C@H](OCC)C[C@H]2C(=O)NC2(CC(C)(C)C2)C(=O)N(C)[C@@H](CC(C)(C)C)C(=O)N(C)[C@H](C(=O)N(C)C)CC(=O)N1C [PP2207]
NRAS /KRAS [1]: A (a compound having 10 or more and less than 20 is denoted as A) | HRAS /KRAS (HRAS wild-type protein): A (a compound having 10 or more and less than 20 is denoted as A)

IC50 [2]: 0.0178 µM
SMILES: CCC[C@@H]1C[C@H]2C(=O)NC3(CC(C)(C)C3)C(=O)N(C)[C@@H](C3CCCC3)C(=O)N(C)[C@H](C(=O)N(C)C)CC(=O)N(C)[C@@H](CC)C(=O)N[C@@H]([C@@H](C)CC)C(=O)N(C)CC(=O)N(C)[C@H]3C/C=C\CCN(C3=O)[C@@H](Cc3ccc(C)cc3)C(=O)N(C)CC(=O)N[C@@H](CCc3cc(F)c(C(F)(F)F)c(F)c3)C(=O)N2C1 [PP2208]
NRAS /KRAS [1]: A (a compound having 10 or more and less than 20 is denoted as A) | HRAS /KRAS (HRAS wild-type protein): A (a compound having 10 or more and less than 20 is denoted as A)

IC50 [2]: 0.007 µM
SMILES: CCC[C@H]1C(=O)N[C@@H]([C@@H](C)CC)C(=O)N(C)CC(=O)N(C)[C@H]2C/C=C\CCN(C2=O)[C@@H](Cc2ccc(C)cc2)C(=O)N(C)CC(=O)N[C@@H](CCc2ccc(C(F)(F)F)c(Cl)c2)C(=O)N2C[C@H](OCC)C[C@H]2C(=O)NC2(CC(C)(C)C2)C(=O)N(C)[C@@H](CC(C)(C)C)C(=O)N(C)[C@H](C(=O)N(C)C)CC(=O)N1C [PP2230]
NRAS /KRAS [1]: A (a compound having 10 or more and less than 20 is denoted as A) | HRAS /KRAS (HRAS wild-type protein): A (a compound having 10 or more and less than 20 is denoted as A)

IC50 [2]: 0.0276 µM
SMILES: CCC[C@@H]1C[C@H]2C(=O)NC3(CCC3)C(=O)N(C)[C@@H](C3CCCC3)C(=O)N(C)[C@H](C(=O)N(C)C)CC(=O)N(C)[C@@H](CC)C(=O)N[C@@H]([C@@H](C)CC)C(=O)N(C)CC(=O)N(C)[C@H]3C/C=C\CCN(C3=O)[C@@H](Cc3ccc(C)cc3)C(=O)N(C)CC(=O)N[C@@H](CCc3cc(F)c(C(F)(F)F)c(F)c3)C(=O)N2C1 [PP2233]
NRAS /KRAS [1]: A (a compound having 10 or more and less than 20 is denoted as A) | HRAS /KRAS (HRAS wild-type protein): A (a compound having 10 or more and less than 20 is denoted as A)

IC50 [2]: 0.0393 µM
SMILES: CCC[C@@H]1C[C@H]2C(=O)NC3(CCC3)C(=O)N(C)[C@@H](C3CCCC3)C(=O)N(C)[C@H](C(=O)N(C)C)CC(=O)N(C)[C@@H](CCC)C(=O)N[C@@H]([C@@H](C)CC)C(=O)N(C)CC(=O)N(C)[C@H]3C/C=C\CCN(C3=O)[C@@H](Cc3ccc(C)cc3)C(=O)N(C)CC(=O)N[C@@H](CCc3ccc(C(F)(F)F)c(Cl)c3)C(=O)N2C1 [PP2238]
NRAS /KRAS [1]: A (a compound having 10 or more and less than 20 is denoted as A) | HRAS /KRAS (HRAS wild-type protein): A (a compound having 10 or more and less than 20 is denoted as A)
